Laboratory results published in publication PMC5458547, “Discovery of first-in-class reversible dual small molecule inhibitors against G9a and DNMTs in hematological malignancies” (Nature Communications, 2017).
Read-outs that look alike come from different tables or passages of the source.

Assays:
[1] = tested on: OCI-AML-2; test: Cell proliferation assay (MTS); format: cell-based, human
[2] = tested on: OCI-Ly10; test: Cell proliferation assay (MTS); format: cell-based, human; conditions: Homo sapiens, OCI-Ly10, 48 h
[3] = tested on: CEMO-1; test: Cell proliferation assay (MTS); format: cell-based, human; conditions: 48 h
[4] = tested on: MV4-11; test: Cell proliferation assay (MTS); format: cell-based; conditions: Homo sapiens
[5] = tested on: OCI-Ly3; test: Cell proliferation assay (MTS); format: cell-based; conditions: Homo sapiens
[6] = tested on: LAL-CUN-2; test: Cell proliferation assay (MTS); format: cell-based; conditions: Homo sapiens, 48 h
[7] = biological target: T1, G9a (Homo sapiens, UniProt Q96KQ7); test: G9a enzyme activity assay (TR-FRET); format: biochemical; conditions: for IC50: TR-FRET, internally determined
T1 sequence (Q96KQ7 1-1210): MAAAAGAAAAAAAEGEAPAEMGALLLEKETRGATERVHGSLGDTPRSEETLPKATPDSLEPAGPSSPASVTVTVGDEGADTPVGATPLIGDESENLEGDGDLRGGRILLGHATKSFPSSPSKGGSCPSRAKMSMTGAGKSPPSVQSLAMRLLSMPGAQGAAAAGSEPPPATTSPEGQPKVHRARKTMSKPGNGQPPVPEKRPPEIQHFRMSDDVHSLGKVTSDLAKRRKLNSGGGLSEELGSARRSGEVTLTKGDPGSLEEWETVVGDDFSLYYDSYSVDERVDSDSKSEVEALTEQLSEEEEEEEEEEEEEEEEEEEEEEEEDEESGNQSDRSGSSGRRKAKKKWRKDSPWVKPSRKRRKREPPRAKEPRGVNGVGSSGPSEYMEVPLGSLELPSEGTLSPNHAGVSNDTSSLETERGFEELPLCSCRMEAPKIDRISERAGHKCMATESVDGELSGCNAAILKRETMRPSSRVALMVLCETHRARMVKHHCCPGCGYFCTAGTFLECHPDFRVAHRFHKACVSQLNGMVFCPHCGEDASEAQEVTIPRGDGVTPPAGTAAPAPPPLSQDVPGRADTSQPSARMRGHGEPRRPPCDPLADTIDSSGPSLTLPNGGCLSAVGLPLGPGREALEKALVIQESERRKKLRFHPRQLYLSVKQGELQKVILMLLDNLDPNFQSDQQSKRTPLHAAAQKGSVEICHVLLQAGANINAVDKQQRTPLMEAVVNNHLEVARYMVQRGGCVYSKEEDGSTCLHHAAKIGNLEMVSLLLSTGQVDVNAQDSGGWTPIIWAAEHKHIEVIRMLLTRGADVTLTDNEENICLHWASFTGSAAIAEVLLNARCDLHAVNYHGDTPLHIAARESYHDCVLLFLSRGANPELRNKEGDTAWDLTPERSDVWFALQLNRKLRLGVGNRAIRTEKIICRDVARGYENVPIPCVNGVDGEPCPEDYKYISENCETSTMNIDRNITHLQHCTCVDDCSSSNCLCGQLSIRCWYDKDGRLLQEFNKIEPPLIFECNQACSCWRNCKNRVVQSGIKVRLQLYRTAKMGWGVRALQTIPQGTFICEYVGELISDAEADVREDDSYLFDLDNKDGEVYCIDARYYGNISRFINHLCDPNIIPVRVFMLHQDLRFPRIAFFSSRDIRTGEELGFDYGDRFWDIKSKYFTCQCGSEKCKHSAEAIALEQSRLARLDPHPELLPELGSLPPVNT

[8] = biological target: T2, human DNMT1 enzyme (Homo sapiens, UniProt P26358); test: DNMT1 enzyme activity assay (TR-FRET); format: biochemical; conditions: internally determined
T2 construct: purchased
T2 sequence (P26358 whole entry): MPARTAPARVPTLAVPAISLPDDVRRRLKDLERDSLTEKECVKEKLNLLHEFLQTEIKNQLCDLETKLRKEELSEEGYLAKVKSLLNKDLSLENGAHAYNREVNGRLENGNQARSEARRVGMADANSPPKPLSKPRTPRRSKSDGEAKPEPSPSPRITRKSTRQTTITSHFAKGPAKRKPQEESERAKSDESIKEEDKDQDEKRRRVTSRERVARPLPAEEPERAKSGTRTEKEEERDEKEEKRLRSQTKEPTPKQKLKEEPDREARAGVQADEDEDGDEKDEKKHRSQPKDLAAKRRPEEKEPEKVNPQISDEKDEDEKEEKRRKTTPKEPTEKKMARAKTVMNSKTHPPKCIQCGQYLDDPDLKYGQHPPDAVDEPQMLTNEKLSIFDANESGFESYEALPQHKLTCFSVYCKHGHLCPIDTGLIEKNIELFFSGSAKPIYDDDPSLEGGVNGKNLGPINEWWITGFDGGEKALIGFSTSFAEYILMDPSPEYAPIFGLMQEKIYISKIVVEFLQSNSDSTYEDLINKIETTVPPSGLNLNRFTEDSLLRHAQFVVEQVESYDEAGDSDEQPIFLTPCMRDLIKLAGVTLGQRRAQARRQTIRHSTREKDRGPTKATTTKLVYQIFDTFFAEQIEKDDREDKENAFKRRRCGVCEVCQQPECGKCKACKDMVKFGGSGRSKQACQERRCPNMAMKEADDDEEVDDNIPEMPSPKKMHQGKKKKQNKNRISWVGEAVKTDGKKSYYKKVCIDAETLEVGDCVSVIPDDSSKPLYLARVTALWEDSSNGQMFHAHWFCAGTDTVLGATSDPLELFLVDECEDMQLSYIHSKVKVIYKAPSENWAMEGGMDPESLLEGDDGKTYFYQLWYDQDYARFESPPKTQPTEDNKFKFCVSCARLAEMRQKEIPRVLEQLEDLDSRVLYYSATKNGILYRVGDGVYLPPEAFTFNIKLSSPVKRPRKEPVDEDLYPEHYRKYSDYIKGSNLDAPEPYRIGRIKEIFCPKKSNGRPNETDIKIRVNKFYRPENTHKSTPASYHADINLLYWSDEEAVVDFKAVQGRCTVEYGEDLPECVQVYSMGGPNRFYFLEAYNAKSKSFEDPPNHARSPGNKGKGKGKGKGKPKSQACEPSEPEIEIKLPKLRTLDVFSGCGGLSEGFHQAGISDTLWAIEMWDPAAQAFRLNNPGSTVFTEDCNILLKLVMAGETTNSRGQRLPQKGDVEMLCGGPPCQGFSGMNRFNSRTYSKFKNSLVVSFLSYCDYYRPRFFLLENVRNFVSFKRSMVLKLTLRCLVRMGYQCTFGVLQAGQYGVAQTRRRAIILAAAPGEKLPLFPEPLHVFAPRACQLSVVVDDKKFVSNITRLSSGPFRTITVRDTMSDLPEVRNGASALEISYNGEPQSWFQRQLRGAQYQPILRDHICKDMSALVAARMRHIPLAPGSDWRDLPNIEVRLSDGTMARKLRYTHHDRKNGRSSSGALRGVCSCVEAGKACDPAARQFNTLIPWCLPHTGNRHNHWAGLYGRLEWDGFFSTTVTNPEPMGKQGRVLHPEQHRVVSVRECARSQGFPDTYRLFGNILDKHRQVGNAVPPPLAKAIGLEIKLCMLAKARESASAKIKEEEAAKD

[9] = biological target: T3, DNMT1 catalytic domain (501-1632) (Homo sapiens, UniProt P26358); test: SPR on immobilised DNMT1; format: binding
T3 construct: Flag (N); purchased
T3 sequence (P26358 485-1616): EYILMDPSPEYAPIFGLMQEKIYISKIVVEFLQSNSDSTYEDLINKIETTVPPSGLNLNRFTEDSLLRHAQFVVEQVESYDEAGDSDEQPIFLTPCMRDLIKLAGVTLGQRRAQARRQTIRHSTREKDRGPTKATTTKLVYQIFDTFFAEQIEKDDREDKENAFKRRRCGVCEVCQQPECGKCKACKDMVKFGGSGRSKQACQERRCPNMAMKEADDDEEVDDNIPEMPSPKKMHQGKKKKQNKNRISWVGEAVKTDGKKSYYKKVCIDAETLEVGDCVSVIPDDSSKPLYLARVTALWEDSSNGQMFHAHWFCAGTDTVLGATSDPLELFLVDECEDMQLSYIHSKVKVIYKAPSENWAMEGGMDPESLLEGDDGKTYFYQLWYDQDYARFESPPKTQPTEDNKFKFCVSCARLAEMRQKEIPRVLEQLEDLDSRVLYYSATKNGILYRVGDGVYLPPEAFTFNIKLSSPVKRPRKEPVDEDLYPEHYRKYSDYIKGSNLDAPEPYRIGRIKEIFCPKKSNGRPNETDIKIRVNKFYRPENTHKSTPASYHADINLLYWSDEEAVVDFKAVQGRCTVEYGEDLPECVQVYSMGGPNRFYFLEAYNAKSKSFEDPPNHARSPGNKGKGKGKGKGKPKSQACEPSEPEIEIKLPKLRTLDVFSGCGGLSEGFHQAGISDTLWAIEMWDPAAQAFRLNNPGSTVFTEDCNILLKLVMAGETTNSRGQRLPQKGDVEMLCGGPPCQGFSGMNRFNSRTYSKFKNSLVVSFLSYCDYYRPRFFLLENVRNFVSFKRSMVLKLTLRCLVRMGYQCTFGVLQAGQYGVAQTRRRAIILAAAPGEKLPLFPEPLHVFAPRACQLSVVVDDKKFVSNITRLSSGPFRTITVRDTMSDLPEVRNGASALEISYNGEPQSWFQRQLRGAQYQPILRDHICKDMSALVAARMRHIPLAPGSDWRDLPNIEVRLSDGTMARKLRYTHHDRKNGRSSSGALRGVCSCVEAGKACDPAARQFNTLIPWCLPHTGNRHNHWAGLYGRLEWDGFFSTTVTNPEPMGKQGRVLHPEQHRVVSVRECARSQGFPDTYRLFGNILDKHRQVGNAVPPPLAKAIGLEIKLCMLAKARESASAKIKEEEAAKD
Text: We have indeed tried to measure the affinity of the reported compounds for DNMT1 using SPR. For that, we attempted SPR experiments using the two different DNMT1 protein constructs we can purchase: A full length DNMT1 with an N-terminal GST fusion, and a shorter construct containing the […]
First, we immobilized GST-tagged full length DNMT1 to a chip containing anti-GST antibody, but the amount immobilized was only 8% of the GST Ab chip capacity, and insufficient to detect binding of the ca. 500 Da compounds, presumably due to steric impediments resulting from the large size (dimer of 209 kDa monomers) of the GST-DNMT1 fusion protein. The theoretical SPR signal expected for the compounds binding with a 1:1 stoichiometry to the amount of protein immobilized (2300 RU) is only 5 response units (RU), with the precision of our BiacoreX100 SPR instrument typically being 1- […]
reference channels at 5 µM, indicating unspecific binding to the chip surface/Ab/GST, and very likely masking their possible direct binding to DNMT1. Compound injections at 200 µM […]
differential increase in the DNMT1 channel that indicates non-reversible binding with a high stoichiometry (responses of 81 and 65 RU, respectively; with 5 RU expected for a 1:1 binding), likely resulting from aggregation of the compounds at 200 µM concentration in the DNMT1 channel. […]
properly measured. […]

[10] = ABC-DLBCL, 48 h, read-out: GI50
[11] = Homo sapiens, OCI-AML2, AML, 48 h, read-out: GI50
[12] = Homo sapiens, ALL, read-out: GI50
[13] = Homo sapiens, CEMO-1, 48 h, as used in apoptosis assay, read-out: GI50
[14] = MV4-11, AML, 48 h, read-out: GI50
[15] = OCI-Ly3, ABC-DLBCL, 48 h, read-out: GI50

| SMILES | GI50 [2, 10] [µM] | GI50 [1, 11] [µM] | GI50 [3, 12] [µM] | GI50 [3, 13] [µM] | GI50 [4, 14] [µM] | GI50 [5, 15] [µM] | GI50 ([6]; ALL, read-out: GI50) [µM] | further results |
| --- | --- | --- | --- | --- | --- | --- | --- | --- |
| COc1cc2c(cc1OCCCN1CCCC1)N=C(N)C21CCC1 [A-366] |  |  |  |  |  |  |  | GI50 ([1]; OCI-AML-2, combination study set-up, read-out: GI50): > 50 µM |
| Nc1ncn([C@@H]2O[C@H](CO)[C@@H](O)[C@H]2O)c(=O)n1 [Azacitidine, azacitidine] | 2.6 | > 10 | 3.96 | 7.7 | 5.56 | 1.93 | 21.2 | IC50 [7]: > 10 µM |
| COc1cc2nc(N3CCCN(C)CC3)nc(NC3CCN(Cc4ccccc4)CC3)c2cc1OC [BIX-01294] | > 4 | 6.32 | 2.91 | 2.9 | 11.9 | > 4 | 5.94 | IC50 [8]: > 10 µM |
| COc1cc2c(OC3CCN(C)CC3)cc(-c3ccc(C)o3)nc2cc1OCCCN1CCCC1 [CM-1021, 6-methoxy-2-(5-methyl-2-furyl)-4-[(1-methyl-4-piperidyl)oxy]-7-(3-pyrrolidin-1-ylpropoxy)quinoline] |  |  |  |  |  |  |  | reduction of primary activity (4-oxyquinoline vs 4-aminoquinoline) ([7]; secondary amine replaced by ether): more than 2.5 log units |
| Nc1ncn([C@H]2C[C@H](O)[C@@H](CO)O2)c(=O)n1 [Decitabine, decitabine] |  |  |  |  |  |  |  | GI50 [2]: > 4 µM; GI50 ([1]; Homo sapiens, OCI-AML2, 48 h): > 10 µM; GI50 ([3]; ALL): 0.49 µM; GI50 ([3]; Homo sapiens, ALL): 0.506 µM; GI50 ([4]; MV4-11, 48 h): > 50 µM; GI50 ([5]; OCI-Ly3, 48 h): > 4 µM; GI50 [6]: > 22.4 µM; IC50 [7]: > 10 µM |
| C[S+](CC[C@H](N)C(=O)[O-])C[C@H]1O[C@@H](n2cnc3c(N)ncnc32)[C@H](O)[C@@H]1O (stereo partly drawn) [SAM, S-adenosyl-L-methionine] |  |  |  |  |  |  |  | Kd [9]: 15 to 20 µM |
| COc1cc2c(NC3CCN(C(C)C)CC3)nc(C3CCCCC3)nc2cc1OCCCN1CCCC1 [UNC-0638] | > 4 | 7.33 | 4.73 | 4.7 | 12 | > 4 | 5.18 |  |
